Read-outs that look alike come from different tables or passages of the source.
Key:
[1] = target: T1, NNMT (Homo sapiens, UniProt P40261); details: read-out: Literature value Ki, determined by SAHH coupled assay; cited from earlier work
T1 sequence (P40261 1-264): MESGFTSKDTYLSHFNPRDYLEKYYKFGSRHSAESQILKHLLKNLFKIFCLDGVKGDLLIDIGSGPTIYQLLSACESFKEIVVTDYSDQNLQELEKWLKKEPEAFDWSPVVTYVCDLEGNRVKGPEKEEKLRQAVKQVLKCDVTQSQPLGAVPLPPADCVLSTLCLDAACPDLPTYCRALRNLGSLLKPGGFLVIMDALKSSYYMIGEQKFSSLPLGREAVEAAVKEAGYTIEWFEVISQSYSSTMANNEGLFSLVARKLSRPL

[2] = target: T1, NNMT; assay: FP-based competition binding assay with probe II138
[3] = target: T1, NNMT; details: read-out: Literature value Km; cofactor; cited from earlier work
[4] = target: T1, NNMT; assay: SAHH-coupled fluorescence assay; type: biochemical; details: linker effect

| Compound | Ki [1] | Ki [2] | Km [3] | Difference of Ki in FP assay in comparison with SAHH coupled assay ([2]; FP Ki versus SAHH-coupled Ki) | Loss in Ki in comparison with LL320 [4] |
| --- | --- | --- | --- | --- | --- |
| 1 methyl quinoline [1-MQ] | > 100 µM | – | – | – | – |
| C[S+](CC[C@H](N)C(=O)[O-])C[C@H]1O[C@@H](n2cnc3c(N)ncnc32)[C@H](O)[C@@H]1O (stereo partly drawn) [AdoMet, S-adenosyl-L-methionine] | – | 20.3 ± 2.9 µM | 24 ± 6.8 µM | – | – |
| NC(=O)c1cccnc1 [NAM, nicotinamide] | > 100 µM | > 1000 µM | – | – | – |
| NCCCNc1ncnc2c1ncn2[C@@H]1O[C@H](CN(CC#Cc2cccc(C(N)=O)c2)CC[C@H](N)C(=O)O)[C@@H](O)[C@H]1O [compound 10] | – | – | – | less than 2 fold | about 100 fold |

From PMC7416818 (Analytical biochemistry, 2020)
